Data: patent US5294632A, “Phosphono/biaryl substituted dipetide derivatives” (Ciba-Geigy Corporation, priority 1992, dated 1994)

Experiments:
plasma ANF levels = assay: effect on rat plasma ANF concentration during ANF infusion; type: in vivo, Male Sprague-Dawley rats; conditions: about 1-30 mg/kg p.o., in 10% ethanol/polyethylene glycol 400; ANF infused 450 ng/kg/min i.v.
Experimental: The effect of the compounds of the invention on rat plasma ANF concentration can be determined as follows:
Male Sprague-Dawley rats (275-390 g) are anesthetized with ketamine (150 mg/kg)/acepromazine (10%) and instrumented with catheters in the femoral artery and vein to obtain blood samples and infuse ANF, respectively. The rats are tethered with a swivel system and are allowed to recover for 24 hours before being studied in the conscious, unrestrained state.
In this assay, plasma ANF levels are determined in the presence and absence of NEP inhibition. On the day of study, all rats are infused continuously with ANF at 450 ng/kg/min. i.v. for the entire 5 hours of the experiment. Sixty minutes after beginning the infusion, blood samples for baseline ANF measurements are obtained (time 0) and the rats are then randomly divided into groups treated with the test compound or vehicle. Additional blood samples are taken 30, 60, 120, 180 and 240 minutes after administration of the test compound.
Plasma concentrations are determined by a specific radioimmunoassay. […] The supernatant is decanted and the pellets counted in a gamma counter. […] Plasma ANF levels are expressed as a percent of those measured in vehicle-treated animals which received ANF alone (450 ng/kg/min i.v.).

[1] = system: DOCA-salt hypertensive rats; assay: antihypertensive effect in DOCA-salt hypertensive rats; type: in vivo; conditions: 30 mg/kg p.o., in PEG 400; DOCA-salt hypertensive rat
Experimental: The antihypertensive effect can be determined in desoxycorticosterone acetate (DOCA)-salt hypertensive rats.
DOCA-salt hypertensive rats (280-380 g) are prepared by the standard method. Rats underwent a unilateral nephrectomy and one week later are implanted with silastic pellets containing 100 mg/kg of DOCA. The rats are maintained on 1% NaCl/0.2% KCl drinking water for three to five weeks until sustained hypertension is established. The antihypertensive activity is evaluated at this time.
Two days before an experiment, the rats are anesthetized with methoxyflurane and instrumented with catheters in the femoral artery to measure arterial blood pressure. Forty-eight hours later, baseline arterial pressure and heart rate are recorded during a 1 hour period. The test compound (30 mg/kg p.o.) or vehicle is then administered and the same cardiovascular parameters are monitored for an additional 5 hours.

ANF-induced natriuresis = assay: potentiation of the natriuretic effect of ANF in anesthetized rats; type: in vivo, Male Sprague-Dawley rats; conditions: 30 mg/Kg in polyethylene glycol 400, intraduodenally; ANF 1 μg/kg i.v. bolus
Experimental: The potentiation of the natriuretic effect of ANF can be determined as follows:
Male Sprague-Dawley rats (280-360 g) are anesthetized with Inactin (100 mg/kg i.p.) and instrumented with catheters in the femoral artery, femoral vein and urinary bladder to measure arterial pressure, administer ANF and collect urine, respectively. A continuous infusion of normal saline (33 μl/min) is maintained throughout the experiment to promote diuresis and sodium excretion. The experimental protocol consists of an initial 15 minute collection period (designated as pre-control) followed by three additional collection periods. Immediately after completion of the pre-control period, test compound or vehicle is administered; nothing is done for the next 45 minutes. […] At the conclusion of this period, ANF is administered (1 μg/kg i.v. bolus) to all animals and arterial pressure and renal parameters are determined during two consecutive 15 minutes collection periods.
Mean arterial pressure, urine flow and urinary sodium excretion are determined for all collection periods. Blood pressure is measured with a Gould p50 pressure transducer, urine flow is determined gravimetrically, sodium concentration is measured by flame photometry, and urinary sodium excretion is calculated as the product of urine flow and urine sodium concentration.

[2] = molecular target: T1, Neutral endopeptidase 3.4.24.11 (Rattus norvegicus, UniProt P07861); assay: in vitro inhibition of neutral endopeptidase (NEP) 3.4.24.11, GAAP substrate assay; type: biochemical; conditions: rat kidney cortex membranes, 500 μM GAAP substrate, pH 7.4, 25° C., 10 minutes
T1 construct: rat kidney cortex membranes prepared by method of Maeda et al, 1983; from tissue; host or cells: rat kidney cortex membranes
T1 sequence (P07861 1-750): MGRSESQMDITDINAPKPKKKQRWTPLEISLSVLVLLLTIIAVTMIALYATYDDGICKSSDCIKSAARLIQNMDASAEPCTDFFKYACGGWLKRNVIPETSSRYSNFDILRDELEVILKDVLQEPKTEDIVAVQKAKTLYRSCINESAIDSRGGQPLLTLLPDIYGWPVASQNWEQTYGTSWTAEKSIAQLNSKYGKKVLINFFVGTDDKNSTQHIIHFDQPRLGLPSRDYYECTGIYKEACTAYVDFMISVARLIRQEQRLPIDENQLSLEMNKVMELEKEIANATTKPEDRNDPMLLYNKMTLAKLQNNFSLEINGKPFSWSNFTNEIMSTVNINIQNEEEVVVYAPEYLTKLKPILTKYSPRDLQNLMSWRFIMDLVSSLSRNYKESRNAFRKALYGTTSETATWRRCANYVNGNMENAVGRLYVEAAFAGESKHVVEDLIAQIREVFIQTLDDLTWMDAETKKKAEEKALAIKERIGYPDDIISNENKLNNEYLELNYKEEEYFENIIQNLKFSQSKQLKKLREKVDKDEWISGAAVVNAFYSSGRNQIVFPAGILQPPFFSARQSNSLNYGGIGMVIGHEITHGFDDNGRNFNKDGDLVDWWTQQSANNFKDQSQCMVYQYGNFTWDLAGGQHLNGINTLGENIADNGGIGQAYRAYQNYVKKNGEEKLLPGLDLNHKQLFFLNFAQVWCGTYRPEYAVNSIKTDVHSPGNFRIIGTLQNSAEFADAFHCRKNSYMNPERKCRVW
Experimental: The in vitro inhibition of neutral endopeptidase (NEP) 3.4.24.11 can be determined as follows:
Neutral endopeptidase 3.4.24.11 activity is determined by the hydrolysis of the substrate glutaryl-Ala-Ala-Phe-2-naphthylamide (GAAP) using a modified procedure of Orlowski and Wilk (1981). The incubation mixture (total volume 125 μl) contains 4.2 μg of protein (rat kidney cortex membranes prepared by method of Maeda et al, 1983), 50 mM tris buffer, pH 7.4 at 25° C., 500 μM substrate (final concentration), and leucine aminopeptidase M (2.5 μg). The mixture is incubated for 10 minutes at 25° C. and 100 μl of fast garnet (250 μg fast garnet/ml of 10% Tween 20 in 1M sodium acetate, pH 4.2) is added. Enzyme activity is measured spectrophotometrically at 540 nm. One unit of NEP 24.11 activity is defined as 1 nmol of 2-naphthylamine released per minute at 25° C. at pH 7.4. IC50 values are determined, i.e. the concentration of test compound required for 50% inhibition of the release of 2-naphthylamine.
The test compound is dissolved in dimethyl sulfoxide or 0.25 M sodium bicarbonate solution, and the solution is diluted with pH 7.4 buffer to the desired concentration.
In vitro testing is most appropriate for the free phosphono/carboxylic acids of the invention.

| Compound | increase in plasma ANF levels (plasma ANF levels) | reduction in blood pressure [1] | potentiation of ANF-induced natriuresis (ANF-induced natriuresis) | IC50 [2] [nM] |
| --- | --- | --- | --- | --- |
| O=C(O)CCNC(=O)[C@H](Cc1ccc(-c2ccccc2)cc1)NCP(=O)(Oc1ccccc1)Oc1ccccc1 [(S)-N-[2-(diphenylphosphonomethylamino)-3-(4-biphenylyl)propionyl]-3-aminopropionic acid] | significant increases in plasma ANF levels | significant reduction in blood pressure | significant potentiation of ANF-induced natriuresis |  |
| O=C(O)CCNC(=O)[C@H](Cc1ccc(-c2ccccc2)cc1)NCP(=O)(O)O [(S)-antipode, S-(+)-N-[2-(phosphonomethylamino)-3-(4-biphenylyl)-propionyl]-3-aminopropionic acid] |  |  |  | ~1.6 |
| O=C(O)CCNC(=O)C(Cc1ccc(-c2ccccc2)cc1)NCP(=O)(O)O (centres unmarked) [N-[2-(phosphonomethylamino)-3-(4-biphenylyl)-propionyl]-3-aminopropionic acid] |  |  |  | ~4.3 |
